Series [1] concerns Myzus persicae. Description: Insecticidal activity against Myzus persicae (green peach aphid) infested Brassica campestris stems followed by cut stem exposure to test compound assessed as insect mortality at 1 ppm measured 5 days post compound treatment by systemic exposure test. It is filed as functional. Conditions: 120 h.
The subject of series [2] is Nilaparvata lugens. As to the kind of experiment: Insecticidal activity against Nilaparvata lugens (brown planthopper) third-instar larvae contacted with rice stems pre-exposed to compound assessed as insect mortality at 1 ppm measured 5 days post insect release by contact exposure test. It is filed as functional. Conditions: 120 h.
Series [3] relates to Nilaparvata lugens. Description: Insecticidal activity against Nilaparvata lugens (brown planthopper) third-instar larvae contacted with rice stems pre-exposed to compound assessed as insect mortality at 10 ppm measured 5 days post insect release by contact exposure test. Format: functional. Conditions: 120 h.
Series [4] relates to Cucumis sativus. As to the kind of experiment: Phytotoxicity against Cucumis sativus (cucumber) exposed to compound spraying at […] measured 7 days post compound treatment by post-emergence glasshouse test. Format: organism-based. The note with it: in vivo, other, 168 h.
For series [5], the system named is Nilaparvata lugens. Description: Insecticidal activity against Nilaparvata lugens (brown planthopper) third-instar larvae reared on rice seedlings assessed as insect mortality at 1 ppm measured 5 days post compound treatment by systemic exposure test. Format: functional. Conditions: 120 h.
For series [6], the system named is Myzus persicae. Description: Insecticidal activity against Myzus persicae (green peach aphid) infested Brassica campestris stems followed by leaf exposure to test compound spraying assessed as insect mortality at 10 ppm measured 5 days post compound treatment by contact exposure test. It is filed as functional. Conditions: 120 h.
For series [7], the system named is Myzus persicae. As to the kind of experiment: Insecticidal activity against Myzus persicae (green peach aphid) infested Brassica campestris stems followed by leaf exposure to test compound spraying assessed as insect mortality at 1 ppm measured 5 days post compound treatment by contact exposure test. It is filed as functional. The note with it: 120 h.
The test system of series [8] is Nilaparvata lugens. As to the kind of experiment: Insecticidal activity against Nilaparvata lugens (brown planthopper) third-instar larvae reared on rice seedlings assessed as insect mortality at 10 ppm measured 5 days post compound treatment by systemic exposure test. Format: functional. Conditions: 120 h.
Series [9] has as its system Oryza sativa. Description: Phytotoxicity against Oryza sativa exposed to compound spraying at […] measured 7 days post compound treatment by post-emergence glasshouse test. It is filed as organism-based. Conditions: in vivo, other, 168 h.
Series [10] has as its system Myzus persicae. Description: Insecticidal activity against Myzus persicae (green peach aphid) infested Brassica campestris stems followed by cut stem exposure to test compound assessed as insect mortality at 0.1 ppm measured 5 days post compound treatment by systemic exposure test. Format: functional. The note with it: 120 h.

This is an account of results in ChEMBL document CHEMBL3044901, “Synthesis and insecticidal activity of N-oxydihydropyrroles: 4-hydroxy-3-mesityl-5,5-dimethyl derivatives with various substituents at the 1-position” (Biosci Biotechnol Biochem, 2002).

Each structure is given as a SMILES string.

The term mortality denotes the percentage killed.

Take `CSCON1C(=O)C(c2c(C)cc(C)cc2C)=C(O)C1(C)C`: the mortality at 1 ppm worked out at 90% in series [1], 30% in [2], 30% in series [5] and 0% in series [7]. Moreover, the mortality at 10 ppm in [3] turned out to be 30%; in series [6] it was 0%; in series [8], 100%. The Phytotoxicity in [4] is listed as 0%; in [9], 90%. Moreover, the mortality at 0.1 ppm in series [10] was 30%.
Take `COC(=O)ON1C(=O)C(c2c(C)cc(C)cc2C)=C(OC(=O)CC(C)(C)C)C1(C)C`: the mortality at 1 ppm came out at 0% in series [1], 60% in series [2], 30% in [5] and 0% in [7]. Moreover, the figures for the Phytotoxicity in series [4] and in series [9] were 0% and 60%, respectively. In series [6], the mortality at 10 ppm came to 0%. The mortality at 0.1 ppm in series [10] was found to be 0%.
For the compound `C#CCON1C(=O)C(c2c(C)cc(C)cc2C)=C(O)C1(C)C`, the mortality at 1 ppm in [1] amounted to 100%; in series [2] it was 60%; in series [5] it was 90%; in series [7], 0%. The mortality at 10 ppm in [3] was 100%; in series [6] it was 90%; in [8], 90%. Besides, the Phytotoxicity in series [4] is listed as 0%; in [9], 100%. For the same compound, the mortality at 0.1 ppm in [10] amounted to 60%.
Take `CCON1C(=O)C(c2c(C)cc(C)cc2C)=C(O)C1(C)C`: the mortality at 1 ppm in [1] was determined as 100%; in series [2] it was 60%; in [5], 60%; in [7], 0%. In addition, the mortality at 10 ppm worked out at 100% in series [3], 0% in series [6] and 90% in series [8]. For the same compound, the Phytotoxicity in [4] stood at 0%; in [9], 100%. Besides, the mortality at 0.1 ppm in series [10] is 60%.
As for `Cc1cc(C)c(C2=C(OC(=O)CC(C)(C)C)C(C)(C)N(OC(=O)N(C)C)C2=O)c(C)c1`, the mortality at 1 ppm is 0% in series [1], 0% in series [2], 30% in [5] and 0% in [7]. For the same compound, the Phytotoxicity in series [4] and in [9] was 0% throughout. The mortality at 10 ppm in series [6] was determined as 0%. Also, in series [10], the mortality at 0.1 ppm was determined as 0%.
For the compound `Cc1cc(C)c(C2=C(O)C(C)(C)N(OCC3CCCCC3)C2=O)c(C)c1`, the mortality at 1 ppm worked out at 60% in series [1], 30% in [2], 60% in series [5] and 0% in series [7]. The mortality at 10 ppm in [3] was found to be 90%; in series [6], 0%; in series [8], 60%. Also, the Phytotoxicity in [4] came out at 0%; in series [9], 60%. Further, the mortality at 0.1 ppm in series [10] turned out to be 0%.
Turning to `CCOCON1C(=O)C(c2c(C)cc(C)cc2C)=C(OC(=O)CC(C)(C)C)C1(C)C`, the mortality at 1 ppm in series [1] was 100%; in series [2] it was 100%; in [5], 0%; in series [7], 100%. The mortality at 10 ppm in series [3], in series [6] and in series [8] was 100% in each case. The results for the Phytotoxicity in series [4] and in series [9] were 60% and 0%, respectively. Besides, the mortality at 0.1 ppm in [10] turned out to be 60%.
With `CC(=O)ON1C(=O)C(c2c(C)cc(C)cc2C)=C(OC(=O)CC(C)(C)C)C1(C)C`, the mortality at 1 ppm in series [1] worked out at 0%; in [2] it was 60%; in [5], 30%; in [7], 0%. For the same compound, the Phytotoxicity in series [4] was determined as 0%; in series [9], 60%. Besides, the mortality at 10 ppm in series [6] stood at 0%. Besides, the mortality at 0.1 ppm in [10] was 0%.
On to `Cc1cc(C)c(C2=C(O)C(C)(C)N(OC(C)C)C2=O)c(C)c1`, for which the mortality at 1 ppm in [1] was determined as 60%; in series [2] it was 30%; in series [5] it was 30%; in series [7], 0%. For the same compound, the mortality at 10 ppm in [3] was 60%; in [6] it was 0%; in [8] it was 90%. Moreover, the figures for the Phytotoxicity in [4] and in series [9] were 0% and 100%, respectively. Also, the mortality at 0.1 ppm in [10] came to 0%.
With `Cc1cc(C)c(C2=C(OC(=O)CC(C)(C)C)C(C)(C)N(OS(C)(=O)=O)C2=O)c(C)c1`, the mortality at 1 ppm in [1], in series [2], in [5] and in series [7] was 0% throughout. The Phytotoxicity in series [4] and in [9] was 0% each time. The mortality at 10 ppm in [6] was determined as 0%. Further, in series [10], the mortality at 0.1 ppm came out at 0%.
On to `CON1C(=O)C(c2c(C)cc(C)cc2C)=C(O)C1(C)C`, for which the mortality at 1 ppm was 100% in series [1], 30% in [2], 100% in series [5] and 0% in series [7]. The mortality at 10 ppm in series [3] was determined as 90%; in [6], 60%; in [8], 100%. The Phytotoxicity in series [4] came to 60%; in [9], 100%. Further, in series [10], the mortality at 0.1 ppm stood at 0%.
On to `COCCON1C(=O)C(c2c(C)cc(C)cc2C)=C(O)C1(C)C`, for which the mortality at 1 ppm in [1] came out at 100%; in series [2] it was 30%; in series [5], 90%; in series [7], 0%. In addition, the mortality at 10 ppm in [3], in series [6] and in series [8] was 90% throughout. Also, the Phytotoxicity in [4] is reported as 60%; in [9] it was 90%. Further, the mortality at 0.1 ppm in series [10] was determined as 100%.
`C=CCON1C(=O)C(c2c(C)cc(C)cc2C)=C(O)C1(C)C`: the mortality at 1 ppm in series [1] was found to be 100%; in [2], 60%; in series [5] it was 60%; in series [7], 0%. Further, the values for the mortality at 10 ppm in series [3], in series [6] and in series [8] were 90%, 100% and 100%, respectively. For the same compound, the Phytotoxicity in [4] amounted to 0%; in series [9] it was 100%. The mortality at 0.1 ppm in [10] worked out at 60%.
As to `Cc1cc(C)c(C2=C(OC(=O)CC(C)(C)C)C(C)(C)N(OC(=O)C(C)(C)C)C2=O)c(C)c1`, the mortality at 1 ppm in series [1] is 0%; in series [2] it was 0%; in series [5], 30%; in series [7] it was 0%. Moreover, the Phytotoxicity in series [4] and in series [9] was 0% each time. In [6], the mortality at 10 ppm came to 0%. Moreover, the mortality at 0.1 ppm in [10] came out at 0%.
In the case of `COCON1C(=O)C(c2c(C)cc(C)cc2C)=C(O)C1(C)C`, the mortality at 1 ppm in [1] was 100%; in series [2] it was 60%; in series [5] it was 60%; in [7], 0%. The mortality at 10 ppm in [3], in [6] and in series [8] was 100% each time. Also, the results for the Phytotoxicity in [4] and in series [9] were 90% and 100%, respectively. Further, the mortality at 0.1 ppm in series [10] was found to be 100%.
As for `CCCON1C(=O)C(c2c(C)cc(C)cc2C)=C(O)C1(C)C`, the mortality at 1 ppm in series [1] stood at 90%; in series [2], 30%; in series [5] it was 60%; in series [7], 0%. The mortality at 10 ppm in series [3] was found to be 100%; in [6], 30%; in series [8] it was 100%. Also, the Phytotoxicity in series [4] is on record as 0%; in [9], 100%. For the same compound, the mortality at 0.1 ppm in series [10] came out at 90%.
Regarding `Cc1cc(C)c(C2=C(OC(=O)CC(C)(C)C)C(C)(C)N(OC(=O)CC(C)(C)C)C2=O)c(C)c1`, the mortality at 1 ppm in series [1], in series [2], in series [5] and in series [7] was 0% each time. Moreover, the Phytotoxicity in series [4] and in series [9] was 0% throughout. Moreover, in series [6], the mortality at 10 ppm stood at 60%. Further, the mortality at 0.1 ppm in [10] is 0%.
`Cc1cc(C)c(C2=C(O)C(C)(C)N(O)C2=O)c(C)c1`: the mortality at 1 ppm came out at 100% in [1], 0% in series [2], 0% in series [5] and 0% in [7]. The results for the mortality at 10 ppm in [3] and in [6] were 0% and 60%, respectively. Besides, the Phytotoxicity in series [4] came to 60%; in series [9] it was 90%. For the same compound, in series [10], the mortality at 0.1 ppm was 0%.
On to `COCON1C(=O)C(c2c(C)cc(C)cc2C)=C(OC(=O)CC(C)(C)C)C1(C)C`, for which the mortality at 1 ppm came out at 100% in series [1], 30% in [2], 30% in [5] and 100% in [7]. Also, the mortality at 10 ppm in series [3] and in series [6] was 100% each time. The Phytotoxicity amounted to 90% in [4] and 100% in [9]. In series [10], the mortality at 0.1 ppm worked out at 100%.
